We go through eight compounds from US6410340B1, “Use of an 8.4 kDa protein as an immunophilin reagent in protein binding assays for immunosuppressive drugs” (Children's Research Institute, priority 2000, dated 2002).

The subject of one series is 5-8 kDa immunophilin. The conditions noted are these: cited from earlier work.
For a further series, the system named is 52 kDa immunophilin. The conditions noted are these: Davis et al. 2000; cited from earlier work.
The target of series [1] is T1, 8.4 kDa immunophilin (Bos taurus, UniProt P62992).
T1 construct: from tissue; host or cells: calf thymus
T1 sequence (P62992 1-74 limits assumed): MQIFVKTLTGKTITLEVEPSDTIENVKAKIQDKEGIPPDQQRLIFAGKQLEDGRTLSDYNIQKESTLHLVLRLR
Briefly: Saturation analysis of tritiated FK-506 binding to calf thymus 8.4 kDa immunophilin (Scatchard, Hill plots). The conditions noted are these: tritiated FK-506, calf thymus 8.4 kDa immunophilin, EBDA/LIGAND. From the text:
Analytical data on purified immunophilins may be obtained conventionally. Association constants, specific binding activities, and numbers and types of binding sites can be obtained from Scatchard and Hill plots, using EBDA and LIGAND software. Isoelectric points (“pI”) can be obtained by isofocussing techniques. To obtain amino acid composition data, samples can be hydrolyzed by HCl gas in the presence of internal standards (e.g., norvaline and sarcosine), the products derivatized with a fluorescent reagent, and the derivatized amino acids separated on a Hewlett-Packard AMINO QUANT Analyzer. […]
An immunophilin protein binding assay (“IBA”) carried out in accordance with this invention can be performed by solution phase or solid phase methods. […] Following attainment of equilibrium, the amount of labeled drug bound to the immunophilin is determined. The amount of labeled drug bound will be reduced in proportion to the amount of analyte in a biological sample being analyzed. The quantitative relationship between the reduction of immunophilin-bound labeled drug and the concentration of the analyte in the unknown sample is determined by reference to a standard calibration curve. […] The amount of labeled drug bound to an immunophilin need not be determined directly; it may be determined by subtracting from the total amount of label added […] in the solution at equilibrium. […]

For series [2] the following is noted: cited from earlier work; for fraction in the blood in the form of the parent compound: patients; for metabolites as share of all drug species in blood: rapamycin: trough blood samples.
Series [3] has as its target T1, 8.4 kDa immunophilin. Nature of the series: Displacement of tritiated FK-506 from the 8.4 kDa immunophilin by RAP. The series is classed as binding, calf. The conditions noted are these: displacement of tritiated FK-506 by RAP; read-out: calculated Kd. From the text: An immunophilin protein binding assay (“IBA”) carried out in accordance with this invention can be performed by solution phase or solid phase methods. The basic principle underlying each method is the same, and is described in, e.g., Davis et al., Clin. Biochem. 33:1(2000) and the Soldin patents listed above. Briefly, in a competitive IBA, a competition equilibrium is set up between a tracer amount of labeled drug and the corresponding drug in unknown samples containing the drug or biologically-active metabolites for binding to specific binding sites on an immunophilin. Following attainment of equilibrium, the amount of labeled drug bound to the immunophilin is determined. The amount of labeled drug bound will be reduced in proportion to the amount of analyte in a biological sample being analyzed. The quantitative relationship between the reduction of immunophilin-bound labeled drug and the concentration of the analyte in the unknown sample is determined by reference to a standard calibration curve. […] The amount of labeled drug bound to an immunophilin need not be determined directly; it may be determined by subtracting from the total amount of label added […] in the solution at equilibrium. […]

Series [4] deals with T1, 8.4 kDa immunophilin. Nature of the series: Binding of [mebmt-beta-3H]-CsA to the 8.4 kDa immunophilin. The conditions noted are these: too low to measure; dissociation constant could not be determined. Further details: species or system calf. The source says: A dissociation constant for [mebmt-beta-3H]-CsA with the 8.4 kDa immunophilin could not be determined, as the binding of this drug to the protein was too low to measure (0.13%).

As for 7-0-demethyl sirolimus, the “binding to 5-8 kDa immunophilin” value in the series on 5-8 kDa immunophilin was “substantially binds”. The “binding to 52 kDa immunophilin” value in the series with 52 kDa immunophilin is listed as “substantially binds”.
As to 32,41-0-demethyl sirolimus, the “binding to 5-8 kDa immunophilin” value in the series on 5-8 kDa immunophilin is “substantially binds”. The “binding to 52 kDa immunophilin” value in the series with 52 kDa immunophilin is given as “substantially binds”.
In the case of 41-0-demethyl sirolimus, in the series with 5-8 kDa immunophilin, the “binding to 5-8 kDa immunophilin” value was “substantially binds”. In addition, the “binding to 52 kDa immunophilin” value in the series with 52 kDa immunophilin is given as “substantially binds”.
The term Kd denotes a measure of binding affinity in units of concentration. Turning to `C=CC[C@@H]1/C=C(\C)C[C@H](C)C[C@H](OC)[C@H]2O[C@@](O)(C(=O)C(=O)N3CCCC[C@H]3C(=O)O[C@H](/C(C)=C/[C@@H]3CC[C@@H](O)[C@H](OC)C3)[C@H](C)[C@@H](O)CC1=O)[C@H](C)C[C@@H]2OC` [FK-506], on 8.4 kDa immunophilin [1], the Kd is 0.8 nM. In addition, in series [2], the “fraction in the blood in the form of the parent compound” value is “¾” and the “metabolites as share of all drug species in blood” value was “about 30%”.
`CO[C@H]1C[C@@H]2CC[C@@H](C)[C@@](O)(O2)C(=O)C(=O)N2CCCC[C@H]2C(=O)O[C@H]([C@H](C)C[C@@H]2CC[C@@H](O)[C@H](OC)C2)CC(=O)[C@H](C)/C=C(\C)[C@@H](O)[C@@H](OC)C(=O)[C@H](C)C[C@H](C)/C=C/C=C/C=C/1C` [RAP, rapamycin]: in series [2], the “fraction in the blood in the form of the parent compound” value was “½” and the “metabolites as share of all drug species in blood” value is “at least 50%”. Besides, at 8.4 kDa immunophilin [3], the Kd was 0.08 nM.
On to (C1-C8 or C32-C36) OH sirolimus, for which, in the series with 5-8 kDa immunophilin, the “binding to 5-8 kDa immunophilin” value is listed as “substantially binds”. Besides, the “binding to 52 kDa immunophilin” value in the series on 52 kDa immunophilin is listed as “substantially binds”.
With (C9-C23)-OH-sirolimus, the “binding to 5-8 kDa immunophilin” value with 5-8 kDa immunophilin is recorded as “all but the fourth metabolite substantially binds”. The “binding to 52 kDa immunophilin” value with 52 kDa immunophilin is given as “all but the fourth metabolite substantially binds”.
Turning to cyclosporin A [CsA], the “binding of the drug to the protein” value at 8.4 kDa immunophilin [4] came out at 0.13%.
